{"source": "patent US20240066027A1", "about": "(DOMAIN THERAPEUTICS, priority 2020, published 2024)", "note": "pIC50: −log10 of the molar value.", "data": [{"biological_target": "T1, human PAR-2 (hPAR-2) receptor expressed in HEK-293 T cells in an endogenous manner (Homo sapiens, UniProt P55085)", "T1 construct": "human PAR-2 (hPAR-2) receptor expressed in HEK-293 T cells in an endogenous manner; endogenous in cells; host or cells: HEK-293 T cells", "T1 sequence (P55085 26-397)": "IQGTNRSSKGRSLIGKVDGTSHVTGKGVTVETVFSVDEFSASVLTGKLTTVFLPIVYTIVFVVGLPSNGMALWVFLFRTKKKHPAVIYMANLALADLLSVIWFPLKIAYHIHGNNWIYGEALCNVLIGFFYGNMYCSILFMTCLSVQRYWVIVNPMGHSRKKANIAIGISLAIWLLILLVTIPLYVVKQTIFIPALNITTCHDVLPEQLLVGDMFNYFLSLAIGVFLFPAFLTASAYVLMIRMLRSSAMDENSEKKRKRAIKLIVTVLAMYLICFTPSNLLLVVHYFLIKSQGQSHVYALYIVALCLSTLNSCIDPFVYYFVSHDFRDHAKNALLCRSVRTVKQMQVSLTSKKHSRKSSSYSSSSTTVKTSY", "assay": "In vitro human PAR-2 functional antagonist activity using calcium assays (Fluo4AM, FLIPR Tetra)", "assay_type": "cell-based", "settings": "HEK-293 T cells stimulated by an EC80 of the 2-Furoyl-LIGRLO-NH2 peptide after 10 min incubation with compound; 20 concentrations, duplicate, two independent experiments", "experimental": "In vitro human PAR-2 functional antagonist activity using calcium assays\nExamples of the present invention were tested successively for their agonist and antagonist activities on human PAR-2 (hPAR-2) receptor expressed in HEK-293 T cells in an endogenous manner. Compounds exert agonist activity if, by themselves in absence of the 2-Furoyl-LIGRLO-NH2 peptide (selective hPAR-2 agonist), they activate PAR-2; they exert antagonist activity if they decrease the action of the 2-Furoyl-LIGRLO-NH2 peptide on the receptor. The assay used to determine compound activity is based on calcium measurement.\nCell Culture: HEK-293 T cells were maintained in Dulbecco's Modified Eagle's Medium supplemented with 10% Foetal Calf Serum, 1% Penicillin/Streptomycin at 37° C./5% CO2. Flasks for tests (F75) are seeded with 6e+06 cells 24 h before the experiment at 37° C./5% CO2.\nCalcium assay: Receptor activity was detected by changes in intracellular calcium measured using the fluorescent Ca^2+ sensitive dye, Fluo4AM (Molecular Probes).\nThe day of the assay, medium was replaced by assay buffer (HBSS 1× (Gibco 14175-053), Hepes 20 mM, MgSO4-7H2O 1 mM, Na2CO3 3.3 mM, CaCl2-2H2O 1.3 mM, 0.5% BSA, Probenecid 2.5 mM, 0.1 mg/mL Pluronic Acid) and complemented with 1 μM Fluo4AM and cells were incubated during 1:30 h at 37° C.\nCells were then detached, resuspended in assay buffer and seeded in 384 wells, transparent-flat bottom black walled plates (2e+04 cells per well). Plates were incubated at +22° C. for 20 min. Compounds stock solutions were prepared in 100% DMSO and dilutions in test buffer were carried out in polypropylene plates with a digital dispenser (D300e, Tecan). Compounds were added to the cells and intracellular Ca^2+ measurements were collected at the same time on FLIPR Tetra® (Molecular Devices) with specific filters (Exc: 470-495 nm/Em: 515-575 nm).\nAgonist and antagonist activities of compounds were consecutively evaluated on the same cell plate. Agonist activity was first measured after 10 min incubation with the compound alone. Then, cells were stimulated by an EC80 of the 2-Furoyl-LIGRLO-NH2 peptide and fluorescence was recorded for an additional 5 min. EC80 of the 2-Furoyl-LIGRLO-NH2 peptide was the concentration giving 80% of the maximal 2-Furoyl-LIGRLO-NH2 response. Agonist activities are evaluated in comparison to basal signals evoked by assay buffer or maximal 2-Furoyl-LIGRLO-NH2 response. […] Antagonist activities are evaluated in comparison to basal signals evoked by assay buffer or EC80 of 2-Furoyl-LIGRLO-NH2 alone.", "values": [{"compound": "Cc1cc(N(C)C2CCN(C(=O)c3ccc4c(-c5ccc(Cl)c(F)c5)cn(C(C)(C)C)c4n3)CC2C)nc(C)c1C(=O)O", "note": "(mixture of isomers) [Example 199, 6-((1-(1-(tert-butyl)-3-(4-chloro-3-fluorophenyl)-1H-pyrrolo[2,3-b]pyridine-6-carbonyl)-3-methylpiperidin-4-yl)(methyl)amino)-2,4-dimethylnicotinic acid]", "pIC50": "5.00 to 7.70"}, {"compound": "CC1(C)C(=O)NCCN1C(=O)c1ccc2c(-c3ccc(Cl)c(F)c3)cn(C(C)(C)C)c2n1", "note": "[Example 1, 4-(1-(tert-butyl)-3-(4-chloro-3-fluorophenyl)-1H-pyrrolo[2,3-b]pyridine-6-carbonyl)-3,3-dimethylpiperazin-2-one]", "pIC50": "> 7.70"}, {"compound": "CN1CCN(C(=O)c2ccc3c(-c4ccc(Cl)c(F)c4)cn(C(C)(C)C)c3n2)C(C)(C)C1=O", "note": "[Example 2, 4-(1-(tert-butyl)-3-(4-chloro-3-fluorophenyl)-1H-pyrrolo[2,3-b]pyridine-6-carbonyl)-1,3,3-trimethylpiperazin-2-one]", "pIC50": "> 7.70"}, {"compound": "COC(=O)CN1CCN(C(=O)c2ccc3c(-c4ccc(Cl)c(F)c4)cn(C(C)(C)C)c3n2)C(C)(C)C1=O", "note": "[Example 3, methyl 2-(4-(1-(tert-butyl)-3-(4-chloro-3-fluorophenyl)-1H-pyrrolo[2,3-b]pyridine-6-carbonyl)-3,3-dimethyl-2-oxopiperazin-1-yl)acetate]", "pIC50": "> 7.70"}, {"compound": "CC1(C)C(=O)N(CC(=O)O)CCN1C(=O)c1ccc2c(-c3ccc(Cl)c(F)c3)cn(C(C)(C)C)c2n1", "note": "[Example 4, 2-(4-(1-(tert-butyl)-3-(4-chloro-3-fluorophenyl)-1H-pyrrolo[2,3-b]pyridine-6-carbonyl)-3,3-dimethyl-2-oxopiperazin-1-yl)acetic acid]", "pIC50": "5.00 to 7.70"}, {"compound": "CC1(C)C(=O)N(CC(N)=O)CCN1C(=O)c1ccc2c(-c3ccc(Cl)c(F)c3)cn(C(C)(C)C)c2n1", "note": "[Example 5, 2-(4-(1-(tert-butyl)-3-(4-chloro-3-fluorophenyl)-1H-pyrrolo[2,3-b]pyridine-6-carbonyl)-3,3-dimethyl-2-oxopiperazin-1-yl)acetamide]", "pIC50": "> 7.70"}, {"compound": "CNC(=O)CN1CCN(C(=O)c2ccc3c(-c4ccc(Cl)c(F)c4)cn(C(C)(C)C)c3n2)C(C)(C)C1=O", "note": "[Example 6, 2-(4-(1-(tert-butyl)-3-(4-chloro-3-fluorophenyl)-1H-pyrrolo[2,3-b]pyridine-6-carbonyl)-3,3-dimethyl-2-oxopiperazin-1-yl)-N-methylacetamide]", "pIC50": "> 7.70"}, {"compound": "CN(C)C(=O)CN1CCN(C(=O)c2ccc3c(-c4ccc(Cl)c(F)c4)cn(C(C)(C)C)c3n2)C(C)(C)C1=O", "note": "[Example 7, 2-(4-(1-(tert-butyl)-3-(4-chloro-3-fluorophenyl)-1H-pyrrolo[2,3-b]pyridine-6-carbonyl)-3,3-dimethyl-2-oxopiperazin-1-yl)-N,N-dimethylacetamide]", "pIC50": "> 7.70"}, {"compound": "CC1(C)C(=O)N(CC(=O)N2CCOCC2)CCN1C(=O)c1ccc2c(-c3ccc(Cl)c(F)c3)cn(C(C)(C)C)c2n1", "note": "[Example 8, 4-(1-(tert-butyl)-3-(4-chloro-3-fluorophenyl)-1H-pyrrolo[2,3-b]pyridine-6-carbonyl)-3,3-dimethyl-1-(2-morpholino-2-oxoethyl)piperazin-2-one]", "pIC50": "> 7.70"}, {"compound": "CC(C)(C)n1cc(-c2ccc(Cl)c(F)c2)c2ccc(C(=O)N3CC4(CCOC4)C3)nc21", "note": "[Example 9, (1-(tert-butyl)-3-(4-chloro-3-fluorophenyl)-1H-pyrrolo[2,3-b]pyridin-6-yl)(6-oxa-2-azaspiro[3.4]octan-2-yl)methanone]", "pIC50": "< 5.00"}, {"compound": "CC(C)(C)n1cc(-c2ccc(Cl)c(F)c2)c2ccc(C(=O)N3CC4(COC4)C3)nc21", "note": "[Example 10, (1-(tert-butyl)-3-(4-chloro-3-fluorophenyl)-1H-pyrrolo[2,3-b]pyridin-6-yl)(2-oxa-6-azaspiro[3.3]heptan-6-yl)methanone]", "pIC50": "< 5.00"}, {"compound": "CC(C)(C)n1cc(-c2ccc(Cl)c(F)c2)c2ccc(C(=O)N3[C@@H]4CC[C@H]3CC(O)C4)nc21", "note": "(stereo partly drawn) [Example 11, (1-(tert-butyl)-3-(4-chloro-3-fluorophenyl)-1H-pyrrolo[2,3-b]pyridin-6-yl)((1R,3r,5S)-3-hydroxy-8-azabicyclo[3.2.1]octan-8-yl)methanone]", "pIC50": "< 5.00"}, {"compound": "CC(C)(C)n1cc(-c2ccc(Cl)c(F)c2)c2ccc(C(=O)N3CCC4(CCNC4=O)CC3)nc21", "note": "[Example 13, 8-(1-(tert-butyl)-3-(4-chloro-3-fluorophenyl)-1H-pyrrolo[2,3-b]pyridine-6-carbonyl)-2,8-diazaspiro[4.5]decan-1-one]", "pIC50": "5.00 to 7.70"}, {"compound": "CC(C)(C)n1cc(-c2ccc(Cl)c(F)c2)c2ccc(C(=O)N3CCC4(CC3)CNC(=O)C4)nc21", "note": "[Example 14, 8-(1-(tert-butyl)-3-(4-chloro-3-fluorophenyl)-1H-pyrrolo[2,3-b]pyridine-6-carbonyl)-2,8-diazaspiro[4.5]decan-3-one]", "pIC50": "5.00 to 7.70"}, {"compound": "CC(C)(C)n1cc(-c2ccc(Cl)c(F)c2)c2ccc(C(=O)N3CC[C@H]4CNC(=O)[C@H]43)nc21", "note": "[Example 15, (3aS,6aS)-1-(1-(tert-butyl)-3-(4-chloro-3-fluorophenyl)-1H-pyrrolo[2,3-b]pyridine-6-carbonyl)hexahydropyrrolo[3,4-b]pyrrol-6(1H)-one]", "pIC50": "5.00 to 7.70"}, {"compound": "CC1(C)CCCN1C(=O)c1ccc2c(-c3ccc(Cl)c(F)c3)cn(C(C)(C)C)c2n1", "note": "[Example 16, (1-(tert-butyl)-3-(4-chloro-3-fluorophenyl)-1H-pyrrolo[2,3-b]pyridin-6-yl)(2,2-dimethylpyrrolidin-1-yl)methanone]", "pIC50": "5.00 to 7.70"}, {"compound": "CC(C)(C)n1cc(-c2ccc(Cl)c(F)c2)c2ccc(C(=O)N3CCCNC(=O)C3)nc21", "note": "[Example 17, 4-(1-(tert-butyl)-3-(4-chloro-3-fluorophenyl)-1H-pyrrolo[2,3-b]pyridine-6-carbonyl)-1,4-diazepan-2-one]", "pIC50": "5.00 to 7.70"}, {"compound": "CC(C)(C)n1cc(-c2ccc(Cl)c(F)c2)c2ccc(C(=O)N3CCNC(=O)CC3)nc21", "note": "[Example 18, 1-(1-(tertbutyl)-3-(4-chloro-3-fluorophenyl)-1H-pyrrolo[2,3-b]pyridine-6-carbonyl)-1,4-diazepan-5-one]", "pIC50": "5.00 to 7.70"}, {"compound": "CC(C)(C)n1cc(-c2ccc(Cl)c(F)c2)c2ccc(C(=O)N3[C@@H]4CC[C@H]3COC4)nc21", "note": "[Example 19, ((1R,5S)-3-oxa-8-azabicyclo[3.2.1]octan-8-yl)(1-(tertbutyl)-3-(4-chloro-3-fluorophenyl)-1H-pyrrolo[2,3-b]pyridin-6-yl)methanone]", "pIC50": "5.00 to 7.70"}, {"compound": "CN1CCN(C(=O)c2ccc3c(-c4ccc(Cl)c(F)c4)cn(C(C)(C)C)c3n2)CC1=O", "note": "[Example 20, 4-(1-(tertbutyl)-3-(4-chloro-3-fluorophenyl)-1H-pyrrolo[2,3-b]pyridine-6-carbonyl)-1-methylpiperazin-2-one]", "pIC50": "5.00 to 7.70"}, {"compound": "COC(=O)C1CCN(C(=O)c2ccc3c(-c4ccc(Cl)c(F)c4)cn(C(C)(C)C)c3n2)CC1(C)C", "note": "(centres unmarked) [Example 21, methyl 1-(1-(tert-butyl)-3-(4-chloro-3-fluorophenyl)-1H-pyrrolo[2,3-b]pyridine-6-carbonyl)-3,3-dimethylpiperidine-4-carboxylate]", "pIC50": "5.00 to 7.70"}, {"compound": "CC1(C)CN(C(=O)c2ccc3c(-c4ccc(Cl)c(F)c4)cn(C(C)(C)C)c3n2)CCC1C(=O)O", "note": "(centres unmarked) [Example 22, 1-(1-(tert-butyl)-3-(4-chloro-3-fluorophenyl)-1H-pyrrolo[2,3-b]pyridine-6-carbonyl)-3,3-dimethylpiperidine-4-carboxylic acid]", "pIC50": "5.00 to 7.70"}, {"compound": "CC1(C)CN(C(=O)c2ccc3c(-c4ccc(Cl)c(F)c4)cn(C(C)(C)C)c3n2)CCC1C(N)=O", "note": "(centres unmarked) [Example 23, 1-(1-(tert-butyl)-3-(4-chloro-3-fluorophenyl)-1H-pyrrolo[2,3-b]pyridine-6-carbonyl)-3,3-dimethylpiperidine-4-carboxamide]", "pIC50": "5.00 to 7.70"}]}]}
